Source: the supplement of paper PMC10307832

How the values were obtained:
Test in all cases: relative viability (nuclei count vs DMSO), 5 days (fraction); higher = more cells survive
[1] = compound: OCc1c[nH]c2ccccc12 [Indole-3-carbinol] + COc1cccc2cc(-c3nc([C@H]4CC[C@H](C(=O)O)CC4)n4ncnc(N)c34)[nH]c12 [OSI-027] (partner 0.5 µM)
How it was run: (§1)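 Lung cancer cell lines, seeded in 1536-well plates, were treated the following day by pin tool with a single drug or with five library-drug doses (not always all listed) in √10 steps on top of a fixed anchor-drug dose. Cells were fixed and nuclei stained in one step after 5 days, and nuclei were counted. Relative viability is the nuclei count for treated wells divided by that for vehicle wells, reported as medians of duplicate plates.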

[2] = compound: OCc1c[nH]c2ccccc12 [Indole-3-carbinol] + CC(C)C[C@H](NC(=O)[C@H](Cc1ccccc1)NC(=O)c1cnccn1)B(O)O [Bortezomib] (partner 0.002 µM)
How it was run: as §1

[3] = compound: OCc1c[nH]c2ccccc12 [Indole-3-carbinol] + Nc1ncn([C@H]2C[C@H](O)[C@@H](CO)O2)c(=O)n1 [Decitabine] (partner 2 µM)
How it was run: as §1

[4] = compound: OCc1c[nH]c2ccccc12 [Indole-3-carbinol] + Nc1nc2[nH]cc(CCc3ccc(C(=O)N[C@@H](CCC(=O)O)C(=O)O)cc3)c2c(=O)[nH]1 [Pemetrexed] (partner 0.2 µM)
How it was run: as §1

[5] = compound: OCc1c[nH]c2ccccc12 [Indole-3-carbinol] + C[C@@H](Oc1cc(-c2cnn(C3CCNCC3)c2)cnc1N)c1c(Cl)ccc(F)c1Cl [Crizotinib] (partner 1 µM)
How it was run: as §1

Row | Cell Line | relative viability ([1]; first compound 0.253 µM) | relative viability ([1]; first compound 0.8 µM) | relative viability ([1]; first compound 2.53 µM) | relative viability ([1]; first compound 8 µM) | relative viability ([2]; first compound 0.253 µM) | relative viability ([2]; first compound 0.8 µM) | relative viability ([2]; first compound 2.53 µM) | relative viability ([2]; first compound 8 µM) | relative viability ([3]; first compound 0.253 µM) | relative viability ([3]; first compound 0.8 µM) | relative viability ([3]; first compound 2.53 µM) | relative viability ([3]; first compound 8 µM) | relative viability ([4]; first compound 0.253 µM) | relative viability ([4]; first compound 0.8 µM) | relative viability ([4]; first compound 2.53 µM) | relative viability ([4]; first compound 8 µM) | relative viability ([5]; first compound 0.253 µM) | relative viability ([5]; first compound 0.8 µM) | relative viability ([5]; first compound 2.53 µM) | relative viability ([5]; first compound 8 µM)
1 | LU99A | 0.307 | 0.355 | 0.291 | 0.284 | 1.31 | 1.11 | 1.06 | 1.02 | 0.833 | 0.862 | 0.944 | 0.938 | 0.169 | 0.163 | 0.187 | 0.175 | 0.569 | 0.568 | 0.532 | 0.506
2 | LXF-289 | 0.838 | 0.855 | 0.783 | 0.754 | 1.03 | 1.1 | 0.944 | 0.893 | 0.383 | 0.324 | 0.362 | 0.369 | 0.944 | 1.02 | 0.934 | 0.851 | 0.863 | 0.933 | 0.824 | 0.729
3 | NCI-H23 | 0.589 | 0.732 | 0.566 | 0.55 | 0.898 | 1.16 | 0.846 | 0.975 | 0.335 | 0.314 | 0.316 | 0.291 | 0.738 | 0.773 | 0.844 | 0.788 | 0.679 | 0.497 | 0.55 | 0.509
4 | NCI-H322M | 0.521 | 0.504 | 0.521 | 0.527 | 1.18 | 1.25 | 1.3 | 1.07 | 0.725 | 0.659 | 0.722 | 0.675 | 0.562 | 0.685 | 0.546 | 0.636 | 1.09 | 0.989 | 1 | 0.892
5 | NCI-H441 | 0.555 | 0.73 | 0.604 | 0.622 | 0.367 | 0.938 | 0.381 | 0.375 | 0.241 | 0.245 | 0.283 | 0.234 | 0.235 | 0.283 | 0.254 | 0.245 | 0.724 | 0.609 | 0.824 | 0.76
6 | NCI-H460 | 0.594 | 0.621 | 0.632 | 0.6 | 1.14 | 1.14 | 1.11 | 1.03 | 0.564 | 0.44 | 0.518 | 0.473 | 0.0608 | 0.0603 | 0.063 | 0.0679 | 1.03 | 0.895 | 0.925 | 0.851
7 | NCI-H520 | 0.25 | 0.189 | 0.258 | 0.274 | 0.543 | 0.613 | 0.498 | 0.563 | 0.526 | 0.541 | 0.505 | 0.541 | 0.671 | 0.687 | 0.69 | 0.757 | 0.826 | 0.948 | 1.02 | 0.754
8 | NCI-H596 | 0.759 | 0.761 | 0.726 | 0.866 | 0.996 | 0.773 | 0.987 | 1.01 | 1.04 | 0.971 | 1.06 | 0.959 | 0.474 | 0.508 | 0.517 | 0.486 | 0.876 | 1.13 | 0.989 | 1
9 | NCI-H647 | 0.595 |  | 0.826 | 0.497 | 1.15 | 0.718 | 1.04 | 0.883 | 0.417 | 0.438 | 0.455 | 0.354 | 0.18 | 0.202 | 0.159 | 0.181 | 1.23 | 1.13 | 1.04 | 1.01
10 | NCI-H650 | 0.559 | 0.512 | 0.482 | 0.482 | 0.955 | 0.748 | 0.83 | 0.746 | 0.354 | 0.323 | 0.344 | 0.338 | 0.959 | 0.851 | 0.937 | 1.04 | 0.716 | 0.729 | 0.8 | 0.638
11 | NCI-H661 | 0.644 | 0.725 | 0.784 | 0.704 | 0.94 | 0.602 | 0.748 | 0.746 | 0.551 | 0.547 | 0.563 | 0.547 | 0.898 | 0.891 | 0.945 | 0.891 | 1.05 |  | 1.16 | 0.977
12 | NCI-H838 | 0.344 | 0.311 | 0.416 | 0.386 | 0.842 | 0.789 | 0.856 | 0.913 | 0.486 | 0.498 | 0.518 | 0.434 | 0.236 | 0.256 | 0.265 | 0.254 | 0.972 | 0.717 | 0.97 | 0.828
13 | NCI-H1355 | 0.403 | 0.44 | 0.363 | 0.396 | 1.25 | 1.18 | 1.2 | 1.17 | 0.342 | 0.359 | 0.379 | 0.371 | 1.08 | 1.08 | 0.983 | 1.06 | 1.17 | 1.08 | 0.971 | 1.06
14 | NCI-H1437 | 0.917 | 0.849 | 0.895 | 0.852 | 0.503 | 0.532 | 0.498 | 0.466 | 0.591 | 0.599 | 0.599 | 0.591 | 0.311 | 0.337 | 0.312 | 0.318 | 0.959 | 1.03 | 0.943 | 0.9
15 | NCI-H1650 | 0.597 |  | 0.601 | 0.647 | 0.19 | 0.192 | 0.207 | 0.194 | 0.412 | 0.352 | 0.493 | 0.34 | 0.377 | 0.328 | 0.47 | 0.449 | 0.907 | 1.02 | 1.16 | 0.968
16 | NCI-H1651 | 0.626 | 0.643 | 0.84 | 0.648 | 0.917 | 0.938 | 0.98 | 0.874 | 0.653 | 0.566 | 0.596 | 0.622 | 0.576 | 0.539 | 0.686 | 0.605 | 0.766 | 0.841 | 0.917 | 0.886
